Reference: publication PMC11302589 (Organic & biomolecular chemistry, 2012)

Assays:
β-galactosidase = biological target: T1, β-galactosidase (Aspergillus oryzae, UniProt Q2UCU3); assay type: biochemical
T1 sequence (Q2UCU3 19-1005): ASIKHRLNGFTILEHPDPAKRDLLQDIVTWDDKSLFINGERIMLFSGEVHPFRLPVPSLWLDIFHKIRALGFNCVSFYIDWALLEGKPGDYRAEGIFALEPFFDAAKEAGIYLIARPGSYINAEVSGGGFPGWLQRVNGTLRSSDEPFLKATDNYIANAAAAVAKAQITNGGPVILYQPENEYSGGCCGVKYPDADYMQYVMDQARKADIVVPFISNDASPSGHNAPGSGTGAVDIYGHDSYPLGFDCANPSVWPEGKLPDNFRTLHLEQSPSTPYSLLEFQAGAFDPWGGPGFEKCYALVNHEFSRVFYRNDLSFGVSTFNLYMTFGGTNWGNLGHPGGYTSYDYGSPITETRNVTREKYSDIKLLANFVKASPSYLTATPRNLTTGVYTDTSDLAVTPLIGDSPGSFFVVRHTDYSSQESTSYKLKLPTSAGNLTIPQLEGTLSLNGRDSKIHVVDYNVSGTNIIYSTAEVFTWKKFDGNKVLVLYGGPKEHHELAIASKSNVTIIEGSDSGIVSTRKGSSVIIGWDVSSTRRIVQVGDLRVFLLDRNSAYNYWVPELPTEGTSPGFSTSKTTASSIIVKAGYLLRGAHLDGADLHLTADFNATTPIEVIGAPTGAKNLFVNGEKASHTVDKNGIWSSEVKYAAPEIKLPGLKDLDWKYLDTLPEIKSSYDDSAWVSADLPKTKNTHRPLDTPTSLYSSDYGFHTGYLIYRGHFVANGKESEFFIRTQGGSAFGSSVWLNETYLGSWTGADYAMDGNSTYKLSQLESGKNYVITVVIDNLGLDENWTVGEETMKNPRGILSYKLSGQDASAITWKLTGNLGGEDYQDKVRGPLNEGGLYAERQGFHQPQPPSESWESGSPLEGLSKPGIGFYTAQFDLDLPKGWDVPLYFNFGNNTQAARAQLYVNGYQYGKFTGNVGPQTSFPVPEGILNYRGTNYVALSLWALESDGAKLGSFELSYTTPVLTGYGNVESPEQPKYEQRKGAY

[1] = biological target: human cytosolic sialidase NEU2 (Homo sapiens, UniProt Q9Y3R4); experiment: biochemical; assay type: biochemical; settings: for IC50: IC50 with Neu5Acα2–3GalβpNP as sialidase substrate, NEU2
[2] = biological target: Salmonella typhimurium sialidase (Salmonella typhimurium, UniProt P29768); experiment: biochemical
[3] = biological target: Vibrio cholerae sialidase (type III) (Vibrio cholerae serotype O1, UniProt P0C6E9); experiment: biochemical; assay type: biochemical; settings: for IC50: V. cholerae
[4] = biological target: Streptococcus pneumoniae sialidase NanB (Streptococcus pneumoniae serotype 4, UniProt Q54727); experiment: biochemical
[5] = IC50 with Neu5Acα2–3GalβpNP as sialidase substrate
[6] = IC50 with Neu5Acα2–6GalβpNP as sialidase substrate

Streptococcus pneumoniae sialidase NanB, sequence (Q54727 30-697): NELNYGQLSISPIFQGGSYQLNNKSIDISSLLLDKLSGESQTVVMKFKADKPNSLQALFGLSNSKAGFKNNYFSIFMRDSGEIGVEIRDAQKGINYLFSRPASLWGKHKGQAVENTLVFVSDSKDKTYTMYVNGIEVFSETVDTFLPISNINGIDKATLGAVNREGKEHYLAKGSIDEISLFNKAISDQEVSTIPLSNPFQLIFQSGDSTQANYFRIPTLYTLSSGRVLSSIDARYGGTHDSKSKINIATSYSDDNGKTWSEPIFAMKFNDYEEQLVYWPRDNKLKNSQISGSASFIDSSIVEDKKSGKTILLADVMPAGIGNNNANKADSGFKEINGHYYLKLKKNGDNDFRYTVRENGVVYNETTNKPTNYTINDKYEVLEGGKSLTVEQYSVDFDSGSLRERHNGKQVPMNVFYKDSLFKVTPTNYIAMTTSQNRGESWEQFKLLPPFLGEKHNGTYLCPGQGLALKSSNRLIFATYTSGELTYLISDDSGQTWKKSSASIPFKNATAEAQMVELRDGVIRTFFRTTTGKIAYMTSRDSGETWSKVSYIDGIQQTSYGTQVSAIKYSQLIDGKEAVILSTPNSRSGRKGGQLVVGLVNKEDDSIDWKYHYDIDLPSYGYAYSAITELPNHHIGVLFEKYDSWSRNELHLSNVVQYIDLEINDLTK
Salmonella typhimurium sialidase, sequence (P29768 whole entry): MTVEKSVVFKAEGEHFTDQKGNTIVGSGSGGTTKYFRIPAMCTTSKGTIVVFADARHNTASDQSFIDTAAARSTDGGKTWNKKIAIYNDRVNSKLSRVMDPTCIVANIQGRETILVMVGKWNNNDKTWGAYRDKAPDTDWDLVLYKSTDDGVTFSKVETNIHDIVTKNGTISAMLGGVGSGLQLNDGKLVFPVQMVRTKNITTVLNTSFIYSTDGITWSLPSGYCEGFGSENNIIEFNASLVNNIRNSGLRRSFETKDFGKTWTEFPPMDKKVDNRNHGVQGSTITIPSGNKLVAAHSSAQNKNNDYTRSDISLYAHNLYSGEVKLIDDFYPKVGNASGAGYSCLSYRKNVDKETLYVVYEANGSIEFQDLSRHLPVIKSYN
human cytosolic sialidase NEU2, sequence (Q9Y3R4 whole entry): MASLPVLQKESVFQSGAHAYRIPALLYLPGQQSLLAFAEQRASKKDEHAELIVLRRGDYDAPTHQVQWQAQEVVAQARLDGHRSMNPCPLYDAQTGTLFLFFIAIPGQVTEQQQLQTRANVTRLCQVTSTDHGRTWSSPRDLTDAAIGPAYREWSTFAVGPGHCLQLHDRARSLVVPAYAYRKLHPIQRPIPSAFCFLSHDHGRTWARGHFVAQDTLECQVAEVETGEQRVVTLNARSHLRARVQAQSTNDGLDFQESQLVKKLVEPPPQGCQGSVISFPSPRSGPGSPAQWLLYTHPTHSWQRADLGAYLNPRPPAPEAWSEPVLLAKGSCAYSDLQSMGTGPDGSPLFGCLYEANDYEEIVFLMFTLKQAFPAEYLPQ
Vibrio cholerae sialidase (type III), sequence (P0C6E9 25-781 limits assumed): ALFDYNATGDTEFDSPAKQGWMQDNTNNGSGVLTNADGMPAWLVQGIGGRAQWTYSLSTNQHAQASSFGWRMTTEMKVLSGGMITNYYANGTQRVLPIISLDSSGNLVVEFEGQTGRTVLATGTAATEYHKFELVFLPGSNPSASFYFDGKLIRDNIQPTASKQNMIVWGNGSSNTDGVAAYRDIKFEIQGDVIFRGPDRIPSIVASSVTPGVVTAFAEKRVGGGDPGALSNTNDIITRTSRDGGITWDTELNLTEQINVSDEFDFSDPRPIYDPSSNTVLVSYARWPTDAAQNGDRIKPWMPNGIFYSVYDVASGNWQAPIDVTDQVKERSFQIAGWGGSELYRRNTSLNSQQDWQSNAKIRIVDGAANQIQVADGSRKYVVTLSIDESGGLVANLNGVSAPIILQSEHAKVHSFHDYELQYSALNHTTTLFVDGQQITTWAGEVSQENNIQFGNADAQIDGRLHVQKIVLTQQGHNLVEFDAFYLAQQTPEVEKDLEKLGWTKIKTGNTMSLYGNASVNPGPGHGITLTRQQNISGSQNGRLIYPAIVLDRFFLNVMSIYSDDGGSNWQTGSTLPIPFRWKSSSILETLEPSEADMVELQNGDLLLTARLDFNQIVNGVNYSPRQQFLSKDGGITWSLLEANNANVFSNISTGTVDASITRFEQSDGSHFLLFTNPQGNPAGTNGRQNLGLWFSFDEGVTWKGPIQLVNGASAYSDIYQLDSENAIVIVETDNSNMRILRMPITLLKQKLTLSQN

Row | Structure (SMILES) | inhibitory effect against β-galactosidase (β-galactosidase) | IC50 [1] [µM] | IC50 [2] [µM] | IC50 [3, 5] [µM] | IC50 [3, 6] [µM] | IC50 [4] [µM] | fold less efficient than Neu5Ac2en (1) against human NEU2 [1] [fold] | fold less efficient than Neu5Ac2en (1) against V. cholerae sialidase [3] [fold] | selectivity for V. cholerae sialidase among the five sialidases tested [3]
1 | CC(=O)N[C@H]1[C@H]([C@H](O)[C@H](O)CO)OC(C(=O)O)=C[C@@H]1O [Neu5Ac2en (1), 2-deoxy-2,3-dehydro-N-acetylneuraminic acid, reference compound] | no inhibitory effect |  |  |  |  |  |  |  | 
2 | COC[C@@H](O)[C@@H](O)[C@@H]1OC(C(=O)O)=C[C@H](O)[C@H]1NC(C)=O [Neu5Ac9Me2en (6), 5-Acetamido-2,6-anhydro-3,5-dideoxy-9-O-methyl-D-glycero-D-galacto-non-2-enonic acid] | no inhibitory effect | 1100 | 130 | 130 | 120 | 3000 |  |  | 
3 | CC(=O)N[C@H]1[C@H]([C@H](O)[C@H](O)CN=[N+]=[N-])OC(C(=O)O)=C[C@@H]1O [Neu5Ac9N32en (3), 5-Acetamido-2,6-anhydro-9-azido-3,5,9-trideoxy-D-glycero-D-galacto-non-2-enonic acid] | no inhibitory effect | 43 ± 2 | 210 |  | 8.7 ± 1 | 3300 | 2.4 | 2.3 | 
4 | CCCNC[C@@H](O)[C@@H](O)[C@@H]1OC(C(=O)O)=C[C@H](O)[C@H]1NC(C)=O [Neu5Ac9NPro2en (7), 5-Acetamido-9-aminopropyl-2,6-anhydro-3,5,9-trideoxy-D-glycero-D-galacto-non-2-enonic acid] | no inhibitory effect |  | 2300 | > 1000 | > 1000 | 5400 |  |  | 
5 | [N-]=[N+]=NCC(=O)N[C@H]1[C@H]([C@H](O)[C@H](O)CN=[N+]=[N-])OC(C(=O)O)=C[C@@H]1O [Neu5AcN39N32en (5), 2,6-Anhydro-9-azido-5-(2-azidoacetamido)-3,5,9-trideoxy-D-glycero-D-galacto-non-2-enonic acid] | no inhibitory effect |  | 16000 | 140 | 110 | > 1000 |  |  | 
6 | [N-]=[N+]=NC[C@@H](O)[C@@H](O)[C@@H]1OC(C(=O)O)=C[C@H](O)[C@H]1NC(=O)CO [Neu5Gc9N32en (4), 2,6-Anhydro-9-azido-3,5,9-trideoxy-5-(2-hydroxyacetamido)-D-glycero-D-galacto-non-2-enonic acid] | no inhibitory effect | 150 | > 10000 | 18 ± 3 | 13 ± 2 | > 10000 |  |  | selective inhibitor
